Legend:
[1] = molecular target: purified human, His-tagged PRC2 complex (Homo sapiens, UniProt O75530+Q15910); experiment: Hot Spot HMT assay: inhibition of PRC2 enzymatic activity (transfer of tritiated methyl from SAM to core histone, filter binding); type: biochemical; settings: Inhibition of PRC2-mediated enzymatic activity; 10 nM PRC2 complex, 0.05 mg/ml core histone H3, 1 uM 3H-SAM, 1 hr at 30°C
Source text: The assay uses purified human, His-tagged PRC2 complex, including N-terminal His-tagged EZH2 enzyme, N-terminal Flag-tagged embryonic ectoderm development protein (EED), N-terminal His-tagged suppressor of zeste 12 (SUZ12), N-terminal His-tagged AEBP2, and N-terminal His-tagged RbAp48. In this assay, the transfer of the tritiated methyl group from radiolabeled S-adenosyl methionine (SAM) to purified core histone protein by EZH2 is quantitated after filtration to determine the activity of the core PRC2 complex in the presence and absence of compound.
The initial starting concentration for the serial dilutions of each compound was 1.0 µM. […] SAH (S-(5-adenosyl)-L-homocysteine) was used as a positive control for assay validation.
An aliquot of each serial dilution of test compound was added to deep 384 well plate using Acoustic Technology instrument (Echo 550, LabCyte) containing reaction buffer (50 mM Tris-HCl (pH 8.)), 0.01% Brij35, 1 mM EDTA, 1 mM DTT, 1 mM PMSF and 1% DMSO), 10 nM purified PRC2 complex and 0.05 mg/ml core histone H3 in a 5 µl volume. The reaction was mixed gently and then pre-incubated for 20 min at 30°C. The enzymatic reaction was initiated by adding 1 uM S-Adenosyl-L-[methyl - ^3H]methionine and incubated for 1 hr at 30°C. After 1 hr, the reaction product was detected using a filter binding method and the amount of tritiated H3 core histone was quantitated using a scintillation counter.

Karpas 422 cells = experiment: Karpas 422 cell viability, CTG (Cell Titre Glo) assay; type: cell-based, human; settings: Homo sapiens; Inhibition of proliferation of Karpas 422 cells (EZH2 Y641N); viability measured Day 4, Day 7 or Day 11, time point of the tabulated values not stated
Experimental: Karpas 422 cell line is a human B cell non-Hodgkin's lymphoma cell line established from a patient having DLBCL. This EZH2 heterozygotic cell line expresses a mutant form of EZH2 enzyme (Y641N) that increases histone H3 methylation and this mutation has been implicated in the tumorgenesis of lymphomas, such as DLBCL.
Karpas 422 cells (PHE cat no., 06101702) were cultured in RPMI medium supplemented with 20% fetal bovine serum and 1% penicillin/1% streptomycin and plated at a density of 1000 cells/90 µl/well in 96 well white assay plates. A dose response curve for compounds of the present invention was determined by adding a 10µl aliquot of stock solutions of varying concentrations of compounds to the same medium in each well, over a concentration range of 10µM using 3-fold dilutions to a final concentration of 1.5nM. The plates were incubated at 37° C for predetermined time periods, Day 4, Day 7, or Day 11, and the viability of the cells was measured using a CTG assay kit (Cell Titre Glo; Promega cat.no G7573) on Day 4 and Day 7 in accordance with the manufacturer's instructions.
For the viability assay for the Day 11 plates, the plates were subjected to centrifugation at 1100 rpm for five minutes on Day 7 and the supernatant was removed by aspiration. The cells were resuspended in 90 µl aliquot of the appropriate growth medium lacking the compound followed by addition of 10 µl of a 10X stock of the same compound at the same concentration. The viability of the Day 11 cells was measured using the CTG assay kit described above in accordance with the manufacturer's instructions. The IC50 values for each compound at each predetermined time point were calculated using Graph pad PRISM software and the results are shown in Table 15. A = ≤250 nM; B = […] - ≤500 nM; and C = >500 nM.

purified human, His-tagged PRC2 complex, sequence (Q15910 whole entry): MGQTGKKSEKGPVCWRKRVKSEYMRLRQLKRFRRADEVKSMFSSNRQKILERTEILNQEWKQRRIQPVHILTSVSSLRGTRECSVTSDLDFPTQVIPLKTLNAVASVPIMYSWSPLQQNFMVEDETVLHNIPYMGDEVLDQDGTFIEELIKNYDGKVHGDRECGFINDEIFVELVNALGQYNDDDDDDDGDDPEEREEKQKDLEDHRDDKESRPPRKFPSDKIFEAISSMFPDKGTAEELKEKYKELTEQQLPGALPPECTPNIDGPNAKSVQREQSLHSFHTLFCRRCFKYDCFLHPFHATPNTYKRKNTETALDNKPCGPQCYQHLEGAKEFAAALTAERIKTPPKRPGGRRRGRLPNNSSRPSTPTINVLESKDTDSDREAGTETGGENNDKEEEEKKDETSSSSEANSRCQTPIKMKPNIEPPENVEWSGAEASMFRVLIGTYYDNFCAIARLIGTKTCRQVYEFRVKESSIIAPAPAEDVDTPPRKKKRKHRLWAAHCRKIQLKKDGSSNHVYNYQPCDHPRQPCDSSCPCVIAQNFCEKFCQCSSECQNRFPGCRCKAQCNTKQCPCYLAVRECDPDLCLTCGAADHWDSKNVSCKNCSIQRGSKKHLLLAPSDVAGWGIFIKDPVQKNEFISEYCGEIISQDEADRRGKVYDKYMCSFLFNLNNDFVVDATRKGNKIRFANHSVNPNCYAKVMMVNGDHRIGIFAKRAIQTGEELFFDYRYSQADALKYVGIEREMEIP
purified human, His-tagged PRC2 complex, sequence (O75530 whole entry): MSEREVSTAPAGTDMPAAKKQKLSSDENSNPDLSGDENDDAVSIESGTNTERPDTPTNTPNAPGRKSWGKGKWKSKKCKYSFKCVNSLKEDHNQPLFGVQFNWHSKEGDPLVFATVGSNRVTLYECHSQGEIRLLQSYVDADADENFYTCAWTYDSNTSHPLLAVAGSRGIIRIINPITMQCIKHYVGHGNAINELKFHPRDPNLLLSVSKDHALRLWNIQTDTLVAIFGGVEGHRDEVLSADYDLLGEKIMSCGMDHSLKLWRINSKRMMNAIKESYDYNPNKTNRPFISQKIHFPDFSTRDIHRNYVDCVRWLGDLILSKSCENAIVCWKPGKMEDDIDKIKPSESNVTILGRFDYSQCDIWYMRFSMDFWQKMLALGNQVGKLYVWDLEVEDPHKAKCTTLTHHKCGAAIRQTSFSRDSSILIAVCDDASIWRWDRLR
purified human, His-tagged PRC2 complex, sequence (Q15022 whole entry partner): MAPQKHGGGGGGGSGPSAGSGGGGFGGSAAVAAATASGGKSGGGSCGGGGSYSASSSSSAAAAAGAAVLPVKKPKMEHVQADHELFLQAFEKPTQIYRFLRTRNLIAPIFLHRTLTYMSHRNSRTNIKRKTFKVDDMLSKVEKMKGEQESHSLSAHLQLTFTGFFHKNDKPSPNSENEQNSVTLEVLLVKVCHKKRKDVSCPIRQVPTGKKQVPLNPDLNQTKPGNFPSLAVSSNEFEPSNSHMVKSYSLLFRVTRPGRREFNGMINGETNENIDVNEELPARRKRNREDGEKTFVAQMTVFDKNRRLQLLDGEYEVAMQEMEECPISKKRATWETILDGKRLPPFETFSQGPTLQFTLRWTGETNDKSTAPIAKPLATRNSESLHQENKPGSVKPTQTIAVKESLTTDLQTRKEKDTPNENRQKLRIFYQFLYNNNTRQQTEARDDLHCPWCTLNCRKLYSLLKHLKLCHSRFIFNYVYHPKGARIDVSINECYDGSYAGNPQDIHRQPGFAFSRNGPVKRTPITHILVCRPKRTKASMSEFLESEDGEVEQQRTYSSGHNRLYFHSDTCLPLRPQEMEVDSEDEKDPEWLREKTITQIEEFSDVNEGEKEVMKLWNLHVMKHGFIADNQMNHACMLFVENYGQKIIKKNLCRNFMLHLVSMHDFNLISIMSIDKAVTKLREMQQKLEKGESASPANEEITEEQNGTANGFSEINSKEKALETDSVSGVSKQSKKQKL
purified human, His-tagged PRC2 complex, sequence (Q6ZN18 whole entry partner): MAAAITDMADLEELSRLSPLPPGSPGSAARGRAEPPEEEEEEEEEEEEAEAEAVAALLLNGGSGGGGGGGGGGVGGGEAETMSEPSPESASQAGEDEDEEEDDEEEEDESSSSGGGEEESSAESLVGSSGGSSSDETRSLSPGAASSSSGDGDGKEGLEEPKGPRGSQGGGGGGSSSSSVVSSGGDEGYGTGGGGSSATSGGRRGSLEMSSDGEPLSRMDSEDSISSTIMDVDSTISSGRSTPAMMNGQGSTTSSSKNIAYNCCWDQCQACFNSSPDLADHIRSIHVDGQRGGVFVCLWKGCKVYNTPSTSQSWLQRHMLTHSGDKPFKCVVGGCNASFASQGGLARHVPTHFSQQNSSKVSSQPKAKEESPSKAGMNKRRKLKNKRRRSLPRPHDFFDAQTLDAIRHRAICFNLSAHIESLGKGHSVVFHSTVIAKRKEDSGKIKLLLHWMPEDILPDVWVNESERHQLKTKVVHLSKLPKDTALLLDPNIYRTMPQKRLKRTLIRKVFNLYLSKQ
purified human, His-tagged PRC2 complex, sequence (Q09028 whole entry partner): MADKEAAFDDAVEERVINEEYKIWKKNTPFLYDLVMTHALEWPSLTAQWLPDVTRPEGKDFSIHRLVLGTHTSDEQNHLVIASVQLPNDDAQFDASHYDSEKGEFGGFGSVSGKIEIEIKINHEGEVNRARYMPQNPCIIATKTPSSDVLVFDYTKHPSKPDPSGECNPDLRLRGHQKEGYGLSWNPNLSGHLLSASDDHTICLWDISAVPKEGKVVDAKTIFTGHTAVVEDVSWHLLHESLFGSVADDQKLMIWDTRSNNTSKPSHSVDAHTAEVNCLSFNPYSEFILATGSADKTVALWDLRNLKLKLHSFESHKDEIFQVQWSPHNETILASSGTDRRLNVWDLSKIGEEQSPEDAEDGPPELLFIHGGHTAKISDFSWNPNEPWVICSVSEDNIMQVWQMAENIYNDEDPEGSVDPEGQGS

N#Cc1cn2c(NCc3c(F)ccc4c3CCO4)ncc(-c3ccc(CO)nc3)c2n1 [Example 147, 5-(((5-fluoro-2,3-dihydrobenzofuran-4-yl)methyl)amino)-8-(6-(hydroxymethyl)pyridin-3-yl)imidazo[1,2-c]pyrimidine-2-carbonitrile]
IC50 [1]: 100 to 500 nM | IC50 (Karpas 422 cells): ≤ 250 nM

CCOc1ncccc1-c1cnc(NCc2c(F)ccc3c2CCO3)n2cc(C#N)nc12 [Example 124, 8-(2-ethoxypyridin-3-yl)-5-(((5-fluoro-2,3-dihydrobenzofuran-4-yl)methyl)amino)imidazo[1,2-c]pyrimidine-2-carbonitrile]
IC50 [1]: < 100 nM | IC50 (Karpas 422 cells): > 500 nM

N#Cc1cn2c(NCc3c(F)ccc4c3CCO4)ncc(-c3cnn(CC(F)(F)F)c3)c2n1 [Example 108, 5-(((5-fluoro-2,3-dihydrobenzofuran-4-yl)methyl)amino)-8-(1-(2,2,2-trifluoroethyl)-1H-pyrazol-4-yl)imidazo[1,2-c]pyrimidine-2-carbonitrile]
IC50 [1]: < 100 nM | IC50 (Karpas 422 cells): ≤ 250 nM

Cc1ncncc1-c1cnc(NCc2c(F)ccc3c2CCO3)n2cc(C#N)nc12 [Example 110, 5-(((5-fluoro-2,3-dihydrobenzofuran-4-yl)methyl)amino)-8-(4-methylpyrimidin-5-yl)imidazo[1,2-c]pyrimidine-2-carbonitrile]
IC50 [1]: < 100 nM | IC50 (Karpas 422 cells): ≤ 250 nM

Cc1ncc(-c2cnc(NCc3c(F)ccc4c3CCO4)n3cc(C#N)nc23)cc1N [Example 129, 8-(5-amino-6-methylpyridin-3-yl)-5-(((5-fluoro-2,3-dihydrobenzofuran-4-yl)methyl)amino)imidazo[1,2-c]pyrimidine-2-carbonitrile]
IC50 [1]: < 100 nM | IC50 (Karpas 422 cells): ≤ 250 nM

N#Cc1cn2c(NCc3c(F)ccc4c3CCO4)ncc(-c3cnn(C4CCCCO4)c3)c2n1 (stereo not shown) [Example 118, 5-(((5-fluoro-2,3-dihydrobenzofuran-4-yl)methyl)amino)-8-(1-(tetrahydro-2H-pyran-2-yl)-1H-pyrazol-4-yl)imidazo[1,2-c]pyrimidine-2-carbonitrile]
IC50 [1]: < 100 nM | IC50 (Karpas 422 cells): > 500 nM

CN(C)Cc1ccc(-c2cnc(NCc3c(F)ccc4c3CCO4)n3cc(C#N)nc23)c(Cl)c1 [Example 33, 8-(2-chloro-4-((dimethylamino)methyl)phenyl)-5-(((5-fluoro-2,3-dihydrobenzofuran-4-yl)methyl)amino)imidazo[1,2-c]pyrimidine-2-carbonitrile]
IC50 [1]: < 100 nM | IC50 (Karpas 422 cells): ≤ 250 nM

CN(C)Cc1ncc(-c2cnc(NCc3c(F)ccc4c3CCO4)n3cc(C#N)nc23)cc1F [Example 40, 8-(6-((dimethylamino)methyl)-5-fluoropyridin-3-yl)-5-(((5-fluoro-2,3-dihydrobenzofuran-4-yl)methyl)amino)imidazo[1,2-c]pyrimidine-2-carbonitrile]
IC50 [1]: < 100 nM | IC50 (Karpas 422 cells): ≤ 250 nM

Cc1nn(C[C@H](C)O)c(C)c1-c1cnc(NCc2c(F)ccc3c2CCO3)n2cc(C#N)nc12 [Example 65, (S)-5-(((5-fluoro-2,3-dihydrobenzofuran-4-yl)methyl)amino)-8-(1-(2-hydroxypropyl)-3,5-dimethyl-1H-pyrazol-4-yl)imidazo[1,2-c]pyrimidine-2-carbonitrile]
IC50 [1]: 100 to 500 nM | IC50 (Karpas 422 cells): > 500 nM

COCCn1cc(-c2cnc(NCc3c(F)ccc4c3CCO4)n3cc(C#N)nc23)cn1 [Example 117, 5-(((5-fluoro-2,3-dihydrobenzofuran-4-yl)methyl)amino)-8-(1-(2-methoxyethyl)-1H-pyrazol-4-yl)imidazo[1,2-c]pyrimidine-2-carbonitrile]
IC50 [1]: 100 to 500 nM | IC50 (Karpas 422 cells): ≤ 250 nM

Cc1nc(N2CCN(C)CC2)ccc1-c1cnc(NCc2c(F)ccc3c2CCO3)n2cc(C#N)nc12 [Example 136, 5-(((5-fluoro-2,3-dihydrobenzofuran-4-yl)methyl)amino)-8-(2-methyl-6-(4-methylpiperazin-1-yl)pyridin-3-yl)imidazo[1,2-c]pyrimidine-2-carbonitrile]
IC50 [1]: 100 to 500 nM | IC50 (Karpas 422 cells): ≤ 250 nM

Cc1cc(-c2cnc(NCc3c(F)ccc4c3CCO4)n3cc(C#N)nc23)cnn1 [Example 41, 5-(((5-fluoro-2,3-dihydrobenzofuran-4-yl)methyl)amino)-8-(6-methylpyridazin-4-yl)imidazo[1,2-c]pyrimidine-2-carbonitrile]
IC50 [1]: < 100 nM | IC50 (Karpas 422 cells): ≤ 250 nM

COc1cc(-c2cnc(NCc3c(F)ccc4c3CCO4)n3cc(C#N)nc23)ccn1 [Example 113, 5-(((5-fluoro-2,3-dihydrobenzofuran-4-yl)methyl)amino)-8-(2-methoxypyridin-4-yl)imidazo[1,2-c]pyrimidine-2-carbonitrile]
IC50 [1]: < 100 nM | IC50 (Karpas 422 cells): > 500 nM

Cc1cc(C(=O)N(C)C)c(F)cc1-c1cnc(NCc2c(F)ccc3c2CCO3)n2cc(C#N)nc12 [Example 43, 4-(2-cyano-5-(((5-fluoro-2,3-dihydrobenzofuran-4-yl)methyl)amlno)lmldazo[1,2-c]pyrlmldln-8-yl)-2-fluoro-N,N,5-trimethylbenzamide]
IC50 [1]: < 100 nM | IC50 (Karpas 422 cells): ≤ 250 nM

N#Cc1cn2c(NCc3c(F)ccc4c3CCO4)ncc(-c3cccnc3C(F)F)c2n1 [Example 64, 8-(2-(difluoromethyl)pyridin-3-yl)-5-(((5-fluoro-2,3-dihydrobenzofuran-4-yl)methyl)amino)imidazo[1,2-c]pyrimidine-2-carbonitrile]
IC50 [1]: < 100 nM | IC50 (Karpas 422 cells): 250 to 500 nM

Cc1cc(CN(C)C)c(F)cc1-c1cnc(NCc2c(F)ccc3c2CCO3)n2cc(C#N)nc12 [Example 84, 8-(4-((dimethylamino)methyl)-5-fluoro-2-methylphenyl)-5-(((5-fluoro-2,3-dihydrobenzofuran-4-yl)methyl)amino)imidazo[1,2-c]pyrimidine-2-carbonitrile]
IC50 [1]: 100 to 500 nM | IC50 (Karpas 422 cells): ≤ 250 nM

Cc1ccncc1-c1cnc(NCc2c(F)ccc3c2CCO3)n2cc(C#N)nc12 [Example 98, 5-(((5-fluoro-2,3-dihydrobenzofuran-4-yl)methyl)amino)-8-(4-methylpyridin-3-yl)imidazo[1,2-c]pyrimidine-2-carbonitrile]
IC50 [1]: < 100 nM | IC50 (Karpas 422 cells): ≤ 250 nM

Cc1nc(C2CC2)ncc1-c1cnc(NCc2c(F)ccc3c2CCO3)n2cc(C#N)nc12 [Example 25, 8-(2-cyclopropyl-4-methylpyrimidin-5-yl)-5-(((5-fluoro-2,3-dihydrobenzofuran-4-yl)methyl)amino)imidazo[1,2-c]pyrimidine-2-carbonitrile]
IC50 [1]: 100 to 500 nM | IC50 (Karpas 422 cells): 250 to 500 nM

CN(C)Cc1c(F)cc(-c2cnc(NCc3c(F)ccc4c3CCO4)n3cc(C#N)nc23)cc1F [Example 149, 8-(4-((dimethylamino)methyl)-3,5-difluorophenyl)-5-(((5-fluoro-2,3-dihydrobenzofuran-4-yl)methyl)amino)imidazo[1,2-c]pyrimidine-2-carbonitrile]
IC50 [1]: 100 to 500 nM | IC50 (Karpas 422 cells): ≤ 250 nM

COC1CCN(Cc2ccc(-c3cnc(NCc4c(F)ccc5c4CCO5)n4cc(C#N)nc34)cc2)C1 (stereo not shown) [Example 53, 5-(((5-fluoro-2,3-dihydrobenzofuran-4-yl)methyl)amino)-8-(4-((3-methoxypyrrolidin-1-yl)methyl)phenyl)imidazo[1,2-c]pyrimidine-2-carbonitrile]
IC50 [1]: < 100 nM | IC50 (Karpas 422 cells): ≤ 250 nM

Reference: patent EP4043466B1, “PRC2 INHIBITORS” (Mirati Therapeutics, Inc., priority 2018, dated 2019)
